What all share (format): cell-based
Test [1] has as its system T47D cells expressing mutant PI3Ka (H1047R). As to the kind of experiment: In vitro cell proliferation, T47D cells (CellTiter-Glo). As to conditions: inhibition of proliferation, read-out: Avg T-47D EC50. The method, boiled down: (§1)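 1,500 cells/well seeded onto pre-stamped 10-pt dilution plates; T47D in RPMI + 10% FBS + insulin 0.2 units/mL, SKBR3 in McCoys 5a + 10% FBS. 72 h, 37 °C, 5% CO2. CTG readout. 0% = 0.1% DMSO, 100% = 10 uM Alpelisib; sigmoidal fit gives EC50.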
In general terms: Cellular ATP, detected with luciferase, serves as a proxy for viable cell number.

Test [2] deals with SKBR3 cells express WT PI3Ka. As to the kind of experiment: In vitro cell proliferation, SKBR3 cells (CellTiter-Glo). As to conditions: inhibition of proliferation. The method, boiled down:
as §1

Test [3] concerns phosphorylation of AKT (pAKT) in T47D cells expressing mutant PI3Ka (H1047R). The test can be described thus: In vitro cell pAKT (Ser473) HTRF, T47D cells. As to conditions: cellular pAKT, T47D cells, mutant PI3Ka (H1047R), 6 hours, read-out: Avg T-47D IC50. The method, boiled down:
(§2)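 T47D cells (RPMI, 10% FBS, 0.2 units/mL insulin) or SKBR3 cells (McCoy's 5a, 10% FBS) were seeded onto 10-point compound dilutions and incubated 6 h at 37 °C. After lysis, pAKT was detected overnight by HTRF (Eu cryptate/d2). IC50 was fitted from % inhibition relative to 0.1% DMSO and 10 uM alpelisib controls.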
(In general: In TR-FRET formats the signal depends on donor and acceptor labels being close together.)

Test [4] concerns phosphorylation of AKT (pAKT) in SKBR3 cells express WT PI3Ka. The test can be described thus: In vitro cell pAKT (Ser473) HTRF, SKBR3 cells. As to conditions: cellular pAKT. The method, boiled down: as §2

Where two headings read alike, the source gives them in different places.

The term EC50 denotes the concentration needed to bring the measured effect to its halfway point. The term IC50 denotes the midpoint of a concentration-inhibition curve. Regarding `C[C@@H](Nc1cccc(F)c1C(=O)O)c1cc(F)cc2c(=O)n(C)c(N3CC(F)(F)C3)cc12` [Example 412], the EC50 was 2 to 15 µM in test [1] (Homo sapiens, T47D, 72 h) and > 15 µM in test [2] (Homo sapiens, SK-BR-3, 72 h). Further, the IC50 in test [3] (Homo sapiens, T47D, 6 h) is 0.5 to 2 µM; in test [4] (Homo sapiens, SK-BR-3, 6 h), > 15 µM.

Turning to `C[C@@H](Nc1cccc(F)c1C(=O)O)c1cc(F)cc2c(=O)n(C)c(N3CC(C(F)(F)F)C3)cc12` [Example 413], the EC50 in test [1] (72 hours) is 2 to 15 µM; in test [2] (72 hours) it was > 15 µM. The IC50 in test [3] is 2 to 15 µM; in test [4] (6 hours) it was > 15 µM.

As to `C[C@@H](Nc1cccc(F)c1C(=O)O)c1cc(F)cc2c(=O)n(C)c(N3CCC(F)(F)C3)cc12` [Example 414], the EC50 in test [1] (72 hours) was 0.001 to 0.5 µM; in test [2] (72 hours), > 15 µM. Also, the IC50 is 0.001 to 0.5 µM in test [3] and > 15 µM in test [4] (6 hours).

On to `C[C@@H](Nc1cccc(F)c1C(=O)O)c1cc(F)cc2c(=O)n(C)c(N3CC[C@@H](C(F)(F)F)C3)cc12` [Example 415], for which the concentration giving a half-maximal response (EC50) is 0.5 to 2 µM in test [1] (Homo sapiens, T47D, 72 h) and > 15 µM in test [2] (Homo sapiens, SK-BR-3, 72 h). In addition, the IC50 was 0.001 to 0.5 µM in test [3] (Homo sapiens, T47D, 6 h) and > 15 µM in test [4] (Homo sapiens, SK-BR-3, 6 h).

Consider `C[C@@H](Nc1cccc(F)c1C(=O)O)c1cc(F)cc2c(=O)n(C)c(N3CC[C@H](C(F)(F)F)C3)cc12` [Example 416], for which the EC50 in test [1] (Homo sapiens, T47D, 72 h) is 0.5 to 2 µM; in test [2] (Homo sapiens, SK-BR-3, 72 h) it was > 15 µM. For the same molecule, the concentration for half-maximal inhibition (IC50) is 0.5 to 2 µM in test [3] (Homo sapiens, T47D, 6 h) and > 15 µM in test [4] (Homo sapiens, SK-BR-3, 6 h).

In the case of `Cc1cnc(N2CCN(c3cc4c([C@@H](C)Nc5cccc(F)c5C(=O)O)cc(F)cc4c(=O)n3C)CC2)s1` [Example 417], the EC50 in test [1] (Homo sapiens, T47D, 72 h) was 0.001 to 0.5 µM; in test [2] (Homo sapiens, SK-BR-3, 72 h), > 15 µM. In addition, the IC50 is 0.001 to 0.5 µM in test [3] (Homo sapiens, T47D, 6 h) and > 15 µM in test [4] (Homo sapiens, SK-BR-3, 6 h).

In the case of `Cc1cc([C@@H](C)Nc2ccccc2C(=O)O)c2cc(N3CCn4c(C)nnc4C3)n(C)c(=O)c2c1` [Example 418], the concentration giving a half-maximal response (EC50) is > 15 µM in test [1] (Homo sapiens, T47D, 72 h) and > 15 µM in test [2] (Homo sapiens, SK-BR-3, 72 h). The IC50 is > 15 µM in test [3] (Homo sapiens, T47D, 6 h) and > 15 µM in test [4] (Homo sapiens, SK-BR-3, 6 h).

In the case of `Cc1cc([C@@H](C)Nc2ccccc2C(=O)O)c2cc(N3CCn4ncnc4C3)n(C)c(=O)c2c1` [Example 419], the EC50 in test [1] (Homo sapiens, T47D, 72 h) is 0.5 to 2 µM; in test [2] (Homo sapiens, SK-BR-3, 72 h), > 15 µM. In addition, the IC50 in test [3] (Homo sapiens, T47D, 6 h) was 0.5 to 2 µM; in test [4] (Homo sapiens, SK-BR-3, 6 h), > 15 µM.

With `Cc1cc([C@@H](C)Nc2ccccc2C(=O)O)c2cc(-c3cnc(CC(F)(F)F)cn3)n(C)c(=O)c2c1` [Example 422], the EC50 is 0.001 to 0.5 µM in test [1] (Homo sapiens, T47D, 72 h) and > 15 µM in test [2] (Homo sapiens, SK-BR-3, 72 h). Moreover, the 50% inhibitory concentration (IC50) in test [3] (Homo sapiens, T47D, 6 h) is 0.001 to 0.5 µM; in test [4] (Homo sapiens, SK-BR-3, 6 h), > 15 µM.

As to `C[C@@H](Nc1cccc(F)c1C(=O)O)c1cc(F)cc2c(=O)n(C)c(N3CCN(c4cnn(C(C)(C)C#N)c4)CC3)cc12` [Example 424], the EC50 was 0.001 to 0.5 µM in test [1] (Homo sapiens, T47D, 72 h) and > 15 µM in test [2] (Homo sapiens, SK-BR-3, 72 h). Further, the IC50 in test [3] (Homo sapiens, T47D, 6 h) was in the range of 0.001 to 0.5 µM; in test [4] (Homo sapiens, SK-BR-3, 6 h), 2 to 15 µM.

As for `C[C@@H](Nc1cccc(F)c1C(=O)O)c1cc(F)cc2c(=O)n(C)c(N3CCN(c4nccs4)CC3)cc12` [Example 429], the EC50 in test [1] (Homo sapiens, T47D, 72 h) is 0.001 to 0.5 µM; in test [2] (Homo sapiens, SK-BR-3, 72 h), > 15 µM. In addition, the IC50 in test [3] (Homo sapiens, T47D, 6 h) was 0.001 to 0.5 µM; in test [4] (Homo sapiens, SK-BR-3, 6 h), > 15 µM.

As for `Cc1cc([C@@H](C)Nc2ccccc2C(=O)O)c2cc(N3CCn4cc(C(F)(F)F)nc4C3)n(C)c(=O)c2c1` [Example 432], the EC50 in test [1] (Homo sapiens, T47D, 72 h) is 0.5 to 2 µM; in test [2] (Homo sapiens, SK-BR-3, 72 h), > 15 µM. Also, the IC50 was 0.001 to 0.5 µM in test [3] (Homo sapiens, T47D, 6 h) and > 15 µM in test [4] (Homo sapiens, SK-BR-3, 6 h).

For the molecule `Cc1cc([C@@H](C)Nc2ccccc2C(=O)O)c2cc(N3CCn4c(cnc4C(F)(F)F)C3)n(C)c(=O)c2c1` [Example 433], the concentration for a half-maximal effect (EC50) in test [1] (72 hours) is 0.5 to 2 µM; in test [2] (72 hours) it was > 15 µM. Moreover, the IC50 is 0.001 to 0.5 µM in test [3] and > 15 µM in test [4] (6 hours).

As for `Cc1cc([C@@H](C)Nc2ccccc2C(=O)O)c2cc(N3CCn4cc(C)nc4C3)n(C)c(=O)c2c1` [Example 434], the EC50 is 0.001 to 0.5 µM in test [1] (Homo sapiens, T47D, 72 h) and > 15 µM in test [2] (Homo sapiens, SK-BR-3, 72 h). In addition, the IC50 in test [3] (Homo sapiens, T47D, 6 h) was 0.001 to 0.5 µM; in test [4] (Homo sapiens, SK-BR-3, 6 h), > 15 µM.

For the origin of these results see US20260078103A1, “ISOQUINOLONES AS PI3K INHIBITORS” (OnKure, Inc., priority 2022, published 2026).
